Reference: US12077768B2, “Plants having increased tolerance to herbicides” (BASF AGRO B.V., priority 2013, dated 2024)

Test system: mutated PPO sequences (e.g. SEQ ID NOs: 1, 30, 31, 11, 37, and 117) as wildtype or with respective mutations, expressed in leaf discs
Assay: Herbicide tolerance of transiently transformed tobacco leaf discs expressing wildtype or mutated PPO: tolerance factors from IC50 of PSII yield inhibition versus empty vector
Type: cell-based, Nicotiana benthamiana

C#CCN1C(=O)C(F)(F)Oc2cc(F)c(-n3c(=O)n(C)c(=S)n(C)c3=O)cc21 [1,5-dimethyl-6-thioxo-3-(2,2,7-trifluoro-3-oxo-4-(prop-2-ynyl)-3,4-dihydro-2H-benzo[b][1,4]oxazin-6-yl)-1,3,5-triazinane-2,4-dione]
Tolerance factor (IC50 of PSII yield inhibition, transformed versus empty vector-transformed leaf discs): 28.7
